According to ChEMBL document CHEMBL1145240, “Discovery of novel conformationally constrained tropane-based biaryl and arylacetylene ligands as potent and selective norepinephrine transporter inhibitors and potential antidepressants” (Bioorg Med Chem Lett, 2005):

molecular target: Sodium-dependent dopamine transporter (Rattus norvegicus, UniProt P23977); test: Inhibitory constant against reuptake of [3H]-DA at dopamine transporter of rat striatal membranes; format: cell membranes, Membrane
Sequence (P23977 whole entry): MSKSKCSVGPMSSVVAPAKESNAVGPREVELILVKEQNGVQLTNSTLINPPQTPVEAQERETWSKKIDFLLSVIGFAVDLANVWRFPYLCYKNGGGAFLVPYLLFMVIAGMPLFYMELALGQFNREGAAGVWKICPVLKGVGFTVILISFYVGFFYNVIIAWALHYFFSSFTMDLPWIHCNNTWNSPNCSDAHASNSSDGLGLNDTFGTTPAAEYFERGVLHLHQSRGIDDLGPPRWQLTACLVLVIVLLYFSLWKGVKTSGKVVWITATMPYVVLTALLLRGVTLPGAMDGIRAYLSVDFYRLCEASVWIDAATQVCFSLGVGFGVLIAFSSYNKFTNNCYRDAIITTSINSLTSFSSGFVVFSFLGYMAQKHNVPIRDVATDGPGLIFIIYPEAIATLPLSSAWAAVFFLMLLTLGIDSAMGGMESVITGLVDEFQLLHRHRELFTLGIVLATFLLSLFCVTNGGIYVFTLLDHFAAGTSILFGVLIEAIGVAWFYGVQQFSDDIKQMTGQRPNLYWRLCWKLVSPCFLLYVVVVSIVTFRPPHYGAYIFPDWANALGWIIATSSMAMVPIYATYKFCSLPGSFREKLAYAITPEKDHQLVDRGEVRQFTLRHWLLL

| Compound | Ki |
| --- | --- |
| COC(=O)C1C2CC3CCC1N3C/C2=C\c1ccc(-c2ccccc2F)cc1 (configuration not stated) | 3400 nM |
| COC(=O)C1C2CC3CCC1N3C/C2=C\C#Cc1cccc(F)c1 (configuration not stated) | > 10000 nM |
| COC(=O)C1C2CC3CCC1N3C/C2=C\C#Cc1ccccc1 (configuration not stated) | > 10000 nM |
| COC(=O)C1C2CC3CCC1N3C/C2=C\C#Cc1ccsc1 (configuration not stated) | > 10000 nM |
| COC(=O)C1C2CC3CCC1N3C/C2=C\C#Cc1ccc(F)c(F)c1 (configuration not stated) | 3150 nM |
| COC(=O)C1C2CC3CCC1N3C/C2=C\c1ccc(-c2cccc(C(F)(F)F)c2)cc1 (configuration not stated) | 556 nM |
| COC(=O)C1C2CC3CCC1N3C/C2=C\c1ccc(-c2ccsc2)s1 (configuration not stated) | 114 nM |
| COC(=O)C1C2CC3CCC1N3C/C2=C\C#Cc1c(F)cccc1F (configuration not stated) | > 10000 nM |
| COC(=O)C1C2CC3CCC1N3C/C2=C\c1ccc(-c2cccc(F)c2)cc1 (configuration not stated) | 646 nM |
| COC(=O)C1C2CC3CCC1N3C/C2=C\c1ccc(-c2cccc(OC)c2)cc1 (configuration not stated) | 114 nM |
| COC(=O)C1C2CC3CCC1N3C/C2=C\C#Cc1cc(F)ccc1F (configuration not stated) | > 10000 nM |
| COC(=O)C1C2CC[C@@H]3C[C@@H]1/C(=C/c1ccc(-c4cc(F)cc(F)c4)cc1)CN23 (some centres not stated) | 228 nM |
| COC(=O)C1C2CC[C@@H]3C[C@@H]1/C(=C/c1ccc(-c4ccc(F)c(F)c4)cc1)CN23 (some centres not stated) | 106 nM |
| COC(=O)C1C2CC3CCC1N3C/C2=C\c1ccc(-c2ccc(SC)cc2)cc1 (configuration not stated) | 1050 nM |
| COC(=O)C1C2CC3CCC1N3C/C2=C\C#Cc1cccs1 (configuration not stated) | > 10000 nM |
| COC(=O)C1C2CC3CCC1N3C/C2=C\C#Cc1ccc(C)c(F)c1 (configuration not stated) | 7070 nM |
| COC(=O)C1C2CC3CCC1N3C/C2=C\c1ccc(-c2ccccc2OC)cc1 (configuration not stated) | 787 nM |
| COC(=O)C1C2CC3CCC1N3C/C2=C\C#Cc1ccc(F)cc1 (configuration not stated) | > 10000 nM |
| COC(=O)C1C2CC3CCC1N3C/C2=C\c1ccc(-c2ccc(F)cc2)cc1 (configuration not stated) | 161 nM |

molecular target: T1, Norepinephrine transporter (Rattus norvegicus, UniProt Q9WTR4); test: Inhibitory constant for [3H]NE reuptake at norepinephrine transporter of rat parietal-occipital cortex
T1 sequence (Q9WTR4 whole entry): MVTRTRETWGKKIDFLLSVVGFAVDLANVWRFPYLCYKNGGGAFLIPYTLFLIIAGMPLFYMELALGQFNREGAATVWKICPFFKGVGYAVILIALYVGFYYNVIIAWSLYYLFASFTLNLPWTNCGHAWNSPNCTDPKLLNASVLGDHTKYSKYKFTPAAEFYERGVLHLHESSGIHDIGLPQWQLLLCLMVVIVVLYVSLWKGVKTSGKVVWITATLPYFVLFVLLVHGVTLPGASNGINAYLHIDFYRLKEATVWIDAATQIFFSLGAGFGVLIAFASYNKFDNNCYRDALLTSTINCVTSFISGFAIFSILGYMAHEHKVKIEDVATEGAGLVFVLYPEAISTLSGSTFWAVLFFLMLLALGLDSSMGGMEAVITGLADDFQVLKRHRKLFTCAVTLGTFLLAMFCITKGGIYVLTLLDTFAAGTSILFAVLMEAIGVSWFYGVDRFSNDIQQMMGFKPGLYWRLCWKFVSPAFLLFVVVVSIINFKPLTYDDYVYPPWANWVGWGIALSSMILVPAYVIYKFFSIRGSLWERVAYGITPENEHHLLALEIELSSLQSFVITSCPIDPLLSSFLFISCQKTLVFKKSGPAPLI

| Compound | Ki |
| --- | --- |
| COC(=O)C1C2CC3CCC1N3C/C2=C\C#Cc1ccsc1 (configuration not stated) | 22 nM |

molecular target: Sodium-dependent serotonin transporter (Rattus norvegicus, UniProt P31652); test: Inhibitory constant against reuptake of [3H]5-HT at serotonin transporter of rat […]; format: tissue-based
Sequence (P31652 whole entry): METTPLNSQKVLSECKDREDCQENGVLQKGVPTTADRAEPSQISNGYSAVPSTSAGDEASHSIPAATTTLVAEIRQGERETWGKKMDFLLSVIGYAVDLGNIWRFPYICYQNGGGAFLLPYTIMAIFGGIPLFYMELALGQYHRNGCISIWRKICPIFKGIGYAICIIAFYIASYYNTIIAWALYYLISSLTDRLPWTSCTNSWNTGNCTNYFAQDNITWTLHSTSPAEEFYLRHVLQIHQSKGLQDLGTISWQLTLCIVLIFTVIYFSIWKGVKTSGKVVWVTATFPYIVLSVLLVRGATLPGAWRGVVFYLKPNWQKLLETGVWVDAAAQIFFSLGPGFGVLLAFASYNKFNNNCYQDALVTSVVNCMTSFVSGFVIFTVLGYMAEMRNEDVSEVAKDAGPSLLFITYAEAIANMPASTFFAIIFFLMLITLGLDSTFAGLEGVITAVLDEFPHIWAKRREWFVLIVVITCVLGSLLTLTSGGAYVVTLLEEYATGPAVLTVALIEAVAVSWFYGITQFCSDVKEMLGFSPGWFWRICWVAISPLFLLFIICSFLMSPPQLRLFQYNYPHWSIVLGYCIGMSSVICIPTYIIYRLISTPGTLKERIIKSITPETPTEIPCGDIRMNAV

| Compound | Ki |
| --- | --- |
| COC(=O)C1C2CC3CCC1N3C/C2=C\c1ccc(-c2ccccc2F)cc1 (configuration not stated) | 466 nM |
| COC(=O)C1C2CC3CCC1N3C/C2=C\C#Cc1cccc(F)c1 (configuration not stated) | 317 nM |
| COC(=O)C1C2CC3CCC1N3C/C2=C\C#Cc1ccccc1 (configuration not stated) | 207 nM |
| COC(=O)C1C2CC3CCC1N3C/C2=C\C#Cc1ccsc1 (configuration not stated) | 86 nM |
| COC(=O)C1C2CC3CCC1N3C/C2=C\C#Cc1ccc(F)c(F)c1 (configuration not stated) | 69 nM |
| COC(=O)C1C2CC3CCC1N3C/C2=C\c1ccc(-c2cccc(C(F)(F)F)c2)cc1 (configuration not stated) | 1170 nM |
| COC(=O)C1C2CC3CCC1N3C/C2=C\c1ccc(-c2ccsc2)s1 (configuration not stated) | 32 nM |
| COC(=O)C1C2CC3CCC1N3C/C2=C\C#Cc1c(F)cccc1F (configuration not stated) | 32 nM |
| COC(=O)C1C2CC3CCC1N3C/C2=C\c1ccc(-c2cccc(F)c2)cc1 (configuration not stated) | 138 nM |
| COC(=O)C1C2CC3CCC1N3C/C2=C\c1ccc(-c2cccc(OC)c2)cc1 (configuration not stated) | 346 nM |
| COC(=O)C1C2CC3CCC1N3C/C2=C\C#Cc1cc(F)ccc1F (configuration not stated) | 215 nM |
| COC(=O)C1C2CC[C@@H]3C[C@@H]1/C(=C/c1ccc(-c4cc(F)cc(F)c4)cc1)CN23 (some centres not stated) | 1.2 nM |
| COC(=O)C1C2CC[C@@H]3C[C@@H]1/C(=C/c1ccc(-c4ccc(F)c(F)c4)cc1)CN23 (some centres not stated) | 295 nM |
| COC(=O)C1C2CC3CCC1N3C/C2=C\c1ccc(-c2ccc(SC)cc2)cc1 (configuration not stated) | 1080 nM |
| COC(=O)C1C2CC3CCC1N3C/C2=C\C#Cc1cccs1 (configuration not stated) | 142 nM |
| COC(=O)C1C2CC3CCC1N3C/C2=C\C#Cc1ccc(C)c(F)c1 (configuration not stated) | 914 nM |
| COC(=O)C1C2CC3CCC1N3C/C2=C\c1ccc(-c2ccccc2OC)cc1 (configuration not stated) | 1340 nM |
| COC(=O)C1C2CC3CCC1N3C/C2=C\C#Cc1ccc(F)cc1 (configuration not stated) | 17 nM |
| COC(=O)C1C2CC3CCC1N3C/C2=C\c1ccc(-c2ccc(F)cc2)cc1 (configuration not stated) | 1390 nM |

molecular target: Muscarinic acetylcholine receptor; test: Inhibition of [3H]QNB binding to muscarinic receptor of rat cortex

| Compound | Ki |
| --- | --- |
| COC(=O)C1C2CC3CCC1N3C/C2=C\c1ccc(-c2ccccc2F)cc1 (configuration not stated) | > 10 µM |
| COC(=O)C1C2CC3CCC1N3C/C2=C\C#Cc1cccc(F)c1 (configuration not stated) | 13.5 µM |
| COC(=O)C1C2CC3CCC1N3C/C2=C\C#Cc1ccccc1 (configuration not stated) | 11.9 µM |
| COC(=O)C1C2CC3CCC1N3C/C2=C\C#Cc1ccsc1 (configuration not stated) | 2.74 µM |
| COC(=O)C1C2CC3CCC1N3C/C2=C\C#Cc1ccc(F)c(F)c1 (configuration not stated) | 7.09 µM |
| COC(=O)C1C2CC3CCC1N3C/C2=C\c1ccc(-c2cccc(C(F)(F)F)c2)cc1 (configuration not stated) | 7.06 µM |
| COC(=O)C1C2CC3CCC1N3C/C2=C\c1ccc(-c2ccsc2)s1 (configuration not stated) | 2.14 µM |
| COC(=O)C1C2CC3CCC1N3C/C2=C\C#Cc1c(F)cccc1F (configuration not stated) | > 10 µM |
| COC(=O)C1C2CC3CCC1N3C/C2=C\c1ccc(-c2cccc(F)c2)cc1 (configuration not stated) | > 10 µM |
| COC(=O)C1C2CC3CCC1N3C/C2=C\c1ccc(-c2cccc(OC)c2)cc1 (configuration not stated) | 4.06 µM |
| COC(=O)C1C2CC3CCC1N3C/C2=C\C#Cc1cc(F)ccc1F (configuration not stated) | > 10 µM |
| COC(=O)C1C2CC[C@@H]3C[C@@H]1/C(=C/c1ccc(-c4cc(F)cc(F)c4)cc1)CN23 (some centres not stated) | 2.83 µM |
| COC(=O)C1C2CC[C@@H]3C[C@@H]1/C(=C/c1ccc(-c4ccc(F)c(F)c4)cc1)CN23 (some centres not stated) | 3.4 µM |
| COC(=O)C1C2CC3CCC1N3C/C2=C\c1ccc(-c2ccc(SC)cc2)s1 (configuration not stated) | > 10 µM |
| COC(=O)C1C2CC3CCC1N3C/C2=C\c1ccc(-c2ccc(SC)cc2)cc1 (configuration not stated) | > 10 µM |
| COC(=O)C1C2CC3CCC1N3C/C2=C\C#Cc1cccs1 (configuration not stated) | 13.9 µM |
| COC(=O)C1C2CC3CCC1N3C/C2=C\C#Cc1ccc(C)c(F)c1 (configuration not stated) | > 10 µM |
| COC(=O)C1C2CC3CCC1N3C/C2=C\c1ccc(-c2ccccc2OC)cc1 (configuration not stated) | > 10 µM |
| COC(=O)C1C2CC3CCC1N3C/C2=C\C#Cc1ccc(F)cc1 (configuration not stated) | 15.1 µM |
| COC(=O)C1C2CC3CCC1N3C/C2=C\c1ccc(-c2ccc(F)cc2)cc1 (configuration not stated) | 1.06 µM |

molecular target: T1, Norepinephrine transporter; test: Inhibitory constant against reuptake of [3H]NE at norepinephrine transporter of rat parietal-occipital cortex

| Compound | Ki |
| --- | --- |
| COC(=O)C1C2CC3CCC1N3C/C2=C\c1ccc(-c2ccccc2F)cc1 (configuration not stated) | 393 nM |
| COC(=O)C1C2CC3CCC1N3C/C2=C\C#Cc1cccc(F)c1 (configuration not stated) | 2110 nM |
| COC(=O)C1C2CC3CCC1N3C/C2=C\C#Cc1ccccc1 (configuration not stated) | > 10000 nM |
| COC(=O)C1C2CC3CCC1N3C/C2=C\C#Cc1ccc(F)c(F)c1 (configuration not stated) | 110 nM |
| COC(=O)C1C2CC3CCC1N3C/C2=C\c1ccc(-c2cccc(C(F)(F)F)c2)cc1 (configuration not stated) | 8.8 nM |
| COC(=O)C1C2CC3CCC1N3C/C2=C\c1ccc(-c2ccsc2)s1 (configuration not stated) | 5.9 nM |
| COC(=O)C1C2CC3CCC1N3C/C2=C\C#Cc1c(F)cccc1F (configuration not stated) | 5.3 nM |
| COC(=O)C1C2CC3CCC1N3C/C2=C\c1ccc(-c2cccc(F)c2)cc1 (configuration not stated) | 5 nM |
| COC(=O)C1C2CC3CCC1N3C/C2=C\c1ccc(-c2cccc(OC)c2)cc1 (configuration not stated) | 9.4 nM |
| COC(=O)C1C2CC3CCC1N3C/C2=C\C#Cc1cc(F)ccc1F (configuration not stated) | 1720 nM |
| COC(=O)C1C2CC[C@@H]3C[C@@H]1/C(=C/c1ccc(-c4cc(F)cc(F)c4)cc1)CN23 (some centres not stated) | 1.3 nM |
| COC(=O)C1C2CC[C@@H]3C[C@@H]1/C(=C/c1ccc(-c4ccc(F)c(F)c4)cc1)CN23 (some centres not stated) | 0.8 nM |
| COC(=O)C1C2CC3CCC1N3C/C2=C\c1ccc(-c2ccc(SC)cc2)cc1 (configuration not stated) | 62 nM |
| COC(=O)C1C2CC3CCC1N3C/C2=C\C#Cc1cccs1 (configuration not stated) | 1570 nM |
| COC(=O)C1C2CC3CCC1N3C/C2=C\C#Cc1ccc(C)c(F)c1 (configuration not stated) | 52 nM |
| COC(=O)C1C2CC3CCC1N3C/C2=C\c1ccc(-c2ccccc2OC)cc1 (configuration not stated) | 6.5 nM |
| COC(=O)C1C2CC3CCC1N3C/C2=C\C#Cc1ccc(F)cc1 (configuration not stated) | 104 nM |
| COC(=O)C1C2CC3CCC1N3C/C2=C\c1ccc(-c2ccc(F)cc2)cc1 (configuration not stated) | 53 nM |
